Laboratory results: US20100152259A1 (Merck & Co Inc., priority 2006, published 2010)

Tested on: rabbit aortic slices
Test: vessel relaxation assay (tissue-based, rabbit aortic slices)
Format: cell-based
Conditions: Oryctolagus cuniculus

| SMILES | EC50 [nM] |
| --- | --- |
| CCCCc1nc(Cl)c(C(=O)OC(C)OC(=O)OCCCC[C@H](CO[N+](=O)[O-])O[N+](=O)[O-])n1Cc1ccc(-c2ccccc2-c2nn[nH]n2)cc1 (single isomer, unassigned) [Compound 2] | 1000 |
| CCCCc1nc(Cl)c(C(=O)OCCOCCO[N+](=O)[O-])n1Cc1ccc(-c2ccccc2-c2nn[nH]n2)cc1 [Compound 1, reference compound] | 6000 |
| CCCCc1nc(Cl)c(C(=O)OC(C)OC(=O)OCCOCC(CO[N+](=O)[O-])O[N+](=O)[O-])n1Cc1ccc(-c2ccccc2-c2nnn[nH]2)cc1 (stereo not drawn) [Compound 3] | 5000 |
| CCCCc1nc(Cl)c(C(=O)OC(C)OC(=O)OCCC(C)(C)CC(CO[N+](=O)[O-])O[N+](=O)[O-])n1Cc1ccc(-c2ccccc2-c2nnn[nH]2)cc1 (stereo not drawn) [Example 4, 1-[({[3,3-dimethyl-5,6-bis(nitrooxy)hexyl]oxy}carbonyl)oxy]ethyl 2-butyl-4-chloro-1-{[2′-(1H-tetrazol-5-yl)biphenyl-4-yl]methyl}-1H-imidazole-5-carboxylate] | 1100 |
| CCOc1nc2cccc(C(=O)OC(C)(C)OC(=O)OCCCCC(CO[N+](=O)[O-])O[N+](=O)[O-])c2n1Cc1ccc(-c2ccccc2-c2nnn[nH]2)cc1 (stereo not drawn) [Example 8, 1-[({[5,6-bis(nitrooxy)hexyl]oxy}carbonyl)oxy]-1-methylethyl 2-ethoxy-1-{[2′-(1H-tetrazol-5-yl)biphenyl-4-yl]methyl}-1H-benzimidazole-7-carboxylate] | 370 |
| CCOc1nc2cccc(C(=O)OC(C)(C)OC(=O)OCCCC[C@H](CO[N+](=O)[O-])O[N+](=O)[O-])c2n1Cc1ccc(-c2ccccc2-c2nnn[nH]2)cc1 [Example 9, 1-[({[(5R)-5,6-bis(nitrooxy)hexyl]oxy}carbonyl)oxy]-1-methylethyl 2-ethoxy-1-{[2′-(1H-tetrazol-5-yl)biphenyl-4-yl]methy}-1H-benzimidazole-7-carboxylate] | 990 |
| CCOc1nc2cccc(C(=O)OC(C)(C)OC(=O)OCCOCC(CO[N+](=O)[O-])O[N+](=O)[O-])c2n1Cc1ccc(-c2ccccc2-c2nnn[nH]2)cc1 (stereo not drawn) [Example 10] | 2380 |
| CCOc1nc2cccc(C(=O)OC(C)(C)OC(=O)OCCOC[C@H](CO[N+](=O)[O-])O[N+](=O)[O-])c2n1Cc1ccc(-c2ccccc2-c2nnn[nH]2)cc1 [Example 11, 1-{[(2-{[(2R)-2,3-bis(nitrooxy)propyl]oxy}ethoxy)carbonyl]oxy}-1-methylethyl 2-ethoxy-1-{[2′-(1H-tetrazol-5-yl)biphenyl-4-yl]methyl}-1H-benzimidazole-7-carboxylate] | 2300 |
| CCOc1nc2cccc(C(=O)OC(C)(C)OC(=O)OCC[C@@H](CO[N+](=O)[O-])O[N+](=O)[O-])c2n1Cc1ccc(-c2ccccc2-c2nnn[nH]2)cc1 [Example 12, 1-[({[(3S)-3,4-bis(nitrooxy)butyl]oxy}carbonyl)oxy]-1-methylethyl 2-ethoxy-1-{[2′-(1H-tetrazol-5-yl)biphenyl-4-yl]methyl}-1H-benzimidazole-7-carboxylate] | 3730 |
